Test results published in patent publication US6610675B1 (priority 1980, dated 2003).

Columns and labels:
[1] = test system: thymus weight in rats; assay: Thymus inhibition testing (subcutaneous administration); assay type: in vivo, rat
Experimental: Several further studies were undertaken to determine the effects of selected compounds of the invention on thymi weights in rats when the drugs were systemically administered. In each of these studies, male Sprague-Dawley rats were used. […] On the fifth day (48 hours following the last treatment), the animals were sacrificed and the thymi weights were recorded. […] It is evident that the higher the inhibition of thymus activity at a given dose, the more toxic the compound is.

[2] = test system: granulation tissue formation caused by implantation of cotton pellets; assay: Granuloma formation test (local cotton pellet granuloma assay); assay type: in vivo, rat; settings: for ED50: dose causing 50% inhibition of granulation tissue weight; for ED60: dose causing 60% inhibition of granulation tissue weight; for Relative potency (ED40) / Relative potency (ED60): chloromethyl 11β-hydroxy-17α-isopropoxycarbonyloxyandrost-4-en-3-one-17β-carboxylate = 1; for ED40: dose causing 40% inhibition of granulation tissue weight
Experimental: The test compound was dissolved in acetone and aliquots of varying concentrations were injected into cotton pellets. The pellets were dried and then one pellet was implanted beneath the skin of each test rat. Six days later, the animals were sacrificed and the granulation tissue (granuloma) which formed in and around the implanted pellet was removed, dried and weighed. In addition, the thymi and adrenals were removed and weighed.

[3] = rat, in vivo, sc, 0.003 mg/kg/day
[4] = rat, in vivo, sc, 0.01 mg/kg/day
[5] = rat, in vivo, sc, 0.03 mg/kg/day
[6] = rat, in vivo, sc, 0.1 mg/kg/day
[7] = rat, in vivo, sc, 0.3 mg/kg/day
[8] = Table VIII, 10 mg/kg/day s.c., three days
[9] = Table IX, 1 mg/kg/day s.c., three days
[10] = Table IX, 3 mg/kg/day s.c., three days
[11] = Table IX, 10 mg/kg/day s.c., three days
[12] = Table IX, 30 mg/kg/day s.c., three days

## CCC(=O)O[C@]1(C(=O)CCl)[C@@H](C)C[C@H]2[C@@H]3CCC4=CC(=O)C=C[C@]4(C)[C@@]3(F)[C@@H](O)C[C@@]21C [Clobetasol 17-propionate, reference compound]
[1]; rat, in vivo
  Relative Potency (TED40): 8.6
  Relative Potency (TED50): 11.2
[1]; rat, in vivo, sc
  TED40: 0.035 mg
  TED50: 0.052 mg
[1]; [3]
  Body weight gain: 18.3 ± 0.6 g
  Thymus wt.: 537 ± 28 mg
  Thymus wt. Inhibition: 2.4%
[1]; [4]
  Body weight gain: 15.5 ± 1.1 g
  Thymus wt.: 498 ± 15 mg
  Thymus wt. Inhibition: 9.5%
[1]; [5]
  Body weight gain: 12.3 ± 1.3 g
  Thymus wt.: 363 ± 22 mg
  Thymus wt. Inhibition: 34.0%
[1]; [6]
  Body weight gain: -0.4 ± 1.3 g
  Thymus wt.: 149 ± 9 mg
  Thymus wt. Inhibition: 72.9%
[1]; [7]
  Body weight gain: -14.3 ± 1.3 g
  Thymus wt.: 63 ± 3 mg
  Thymus wt. Inhibition: 88.5%
[2]; Table V-a, 1 μg/pellet
  Body wt. gain: 33.0 ± 1.2 g
  Granulation tissue Dry wt.: 42.0 ± 5.8 mg
  Granulation tissue Dry wt. Inhibition: 47.6%
  Granulation tissue Wet wt.: 401 ± 29 mg
  Granulation tissue Wet wt. Inhibition: 23.6%
  Thymus wt.: 478 ± 22 mg
  Thymus wt. (Decrease %): (3.4) %
[2]; Table V-a, 3 μg/pellet
  Body wt. gain: 24.9 ± 1.8 g
  Granulation tissue Dry wt.: 43.1 ± 8.9 mg
  Granulation tissue Dry wt. Inhibition: 46.2%
  Granulation tissue Wet wt.: 402 ± 40 mg
  Granulation tissue Wet wt. Inhibition: 23.4%
  Thymus wt.: 449 ± 21 mg
  Thymus wt. (Decrease %): (9.3) %
[2]; Table V-a, 10 μg/pellet
  Body wt. gain: 25.0 ± 2.1 g
  Granulation tissue Dry wt.: 37.9 ± 6.8 mg
  Granulation tissue Dry wt. Inhibition: 52.7%
  Granulation tissue Wet wt.: 364 ± 25 mg
  Granulation tissue Wet wt. Inhibition: 30.7%
  Thymus wt.: 322 ± 22 mg
  Thymus wt. (Decrease %): (34.9) %
[2]; Table V-a, 30 μg/pellet
  Body wt. gain: 24.8 ± 1.1 g
  Granulation tissue Dry wt.: 25.5 ± 2.1 mg
  Granulation tissue Dry wt. Inhibition: 68.2%
  Granulation tissue Wet wt.: 320 ± 10 mg
  Granulation tissue Wet wt. Inhibition: 39.0%
  Thymus wt.: 174 ± 26 mg
  Thymus wt. (Decrease %): (64.8) %
[2]; Table V-a, 100 μg/pellet
  Body wt. gain: 15.9 ± 1.0 g
  Granulation tissue Dry wt.: 23.9 ± 3.3 mg
  Granulation tissue Dry wt. Inhibition: 70.2%
  Granulation tissue Wet wt.: 325 ± 12 mg
  Granulation tissue Wet wt. Inhibition: 38.1%
  Thymus wt.: 84 ± 3 mg
  Thymus wt. (Decrease %): (83.0) %
[2]
  ED50: >3 μg/pellet
  ED60: >10 μg/pellet

## CCCOC(=O)O[C@]1(C(=O)OCCl)[C@H](C)C[C@H]2[C@@H]3CCC4=CC(=O)C=C[C@]4(C)[C@@]3(F)[C@@H](O)C[C@@]21C [chloromethyl 9α-fluoro-11β-hydroxy-16α-methyl-17α-propoxycarbonyloxyandrosta-1,4-dien-3-one-17β-carboxylate]
[1]; [8]
  Body weight gain: 2.7 ± 1.7 g
  Thymus wt.: 277 ± 25 mg
  Thymus wt. Inhibition: 49.6%
[2]; Table V-a, 0.3 μg/pellet
  Body wt. gain: 35.6 ± 1.0 g
  Granulation tissue Dry wt.: 55.1 ± 6.2 mg
  Granulation tissue Dry wt. Inhibition: 31.2%
  Granulation tissue Wet wt.: 454 ± 27 mg
  Granulation tissue Wet wt. Inhibition: 13.5%
  Thymus wt.: 523 ± 28 mg
[2]; Table V-a, 1 μg/pellet
  Body wt. gain: 31.9 ± 0.8 g
  Granulation tissue Dry wt.: 42.9 ± 5.1 mg
  Granulation tissue Dry wt. Inhibition: 46.4%
  Granulation tissue Wet wt.: 415 ± 30 mg
  Granulation tissue Wet wt. Inhibition: 21.0%
  Thymus wt.: 453 ± 21 mg
[2]; Table V-a, 3 μg/pellet
  Body wt. gain: 34.1 ± 1.9 g
  Granulation tissue Dry wt.: 29.7 ± 3.2 mg
  Granulation tissue Dry wt. Inhibition: 62.9%
  Granulation tissue Wet wt.: 360 ± 18 mg
  Granulation tissue Wet wt. Inhibition: 31.4%
  Thymus wt.: 504 ± 42 mg
[2]; Table V-a, 10 μg/pellet
  Body wt. gain: 33.1 ± 1.6 g
  Granulation tissue Dry wt.: 28.5 ± 2.8 mg
  Granulation tissue Dry wt. Inhibition: 64.4%
  Granulation tissue Wet wt.: 350 ± 13 mg
  Granulation tissue Wet wt. Inhibition: 33.3%
  Thymus wt.: 547 ± 26 mg
[2]
  Relative potency (ED40): 529
  Relative potency (ED60): 277
  ED40: 0.58 μg/pellet
  ED50: 1.20 μg/pellet
  ED60: 2.49 μg/pellet

## CC(C)OC(=O)O[C@]1(C(=O)OCCl)[C@H](C)C[C@H]2[C@@H]3CCC4=CC(=O)C=C[C@]4(C)[C@@]3(F)[C@@H](O)C[C@@]21C [chloromethyl 9α-fluoro-11β-hydroxy-17α-isopropoxycarbonyloxy-16α-methylandrosta-1,4-dien-3-one-17β-carboxylate]
[1]; [8]
  Body weight gain: 2.7 ± 1.9 g
  Thymus wt.: 234 ± 31 mg
  Thymus wt. Inhibition: 57.5%

## CC(C)OC(=O)O[C@]1(C(=O)OCCl)[C@@H](C)C[C@H]2[C@@H]3CCC4=CC(=O)C=C[C@]4(C)[C@@]3(F)[C@@H](O)C[C@@]21C [chloromethyl 9α-fluoro-11β-hydroxy-17α-isopropoxycarbonyloxy-16β-methylandrosta-1,4-dien-3-one-17β-carboxylate]
[1]; [8]
  Body weight gain: 5.3 ± 1.4 g
  Thymus wt.: 260 ± 26 mg
  Thymus wt. Inhibition: 52.7%
[2]; Table IV, 1 μg/pellet
  Body wt. gain: 33.0 ± 1.7 g
  Granulation tissue Dry wt.: 44.4 ± 5.4 mg
  Granulation tissue Dry wt. Inhibition: 45.3%
  Granulation tissue Wet wt.: 423 ± 19 mg
  Granulation tissue Wet wt. Inhibition: 25.3%
  Thymus wt.: 526 ± 30 mg
[2]; Table IV, 3 μg/pellet
  Body wt. gain: 30.4 ± 1.1 g
  Granulation tissue Dry wt.: 26.9 ± 4.4 mg
  Granulation tissue Dry wt. Inhibition: 66.9%
  Granulation tissue Wet wt.: 351 ± 19 mg
  Granulation tissue Wet wt. Inhibition: 38.0%
  Thymus wt.: 471 ± 20 mg
[2]; Table IV, 10 μg/pellet
  Body wt. gain: 33.0 ± 1.5 g
  Granulation tissue Dry wt.: 29.9 ± 3.3 mg
  Granulation tissue Dry wt. Inhibition: 63.2%
  Granulation tissue Wet wt.: 362 ± 8 mg
  Granulation tissue Wet wt. Inhibition: 36.0%
  Thymus wt.: 474 ± 25 mg
[2]; Table IV, 30 μg/pellet
  Body wt. gain: 31.8 ± 1.7 g
  Granulation tissue Dry wt.: 19.9 ± 2.3 mg
  Granulation tissue Dry wt. Inhibition: 75.5%
  Granulation tissue Wet wt.: 315 ± 12 mg
  Granulation tissue Wet wt. Inhibition: 44.3%
  Thymus wt.: 489 ± 26 mg
[2]
  Relative potency (ED40): 1228
  Relative potency (ED60): 184
  ED40: 0.25 μg/pellet
  ED50: 0.97 μg/pellet
  ED60: 3.75 μg/pellet

## CC(C)OC(=O)O[C@]1(C(=O)OCCl)[C@@H](C)C[C@H]2[C@@H]3CCC4=CC(=O)C=C[C@]4(C)[C@@]3(F)C(=O)C[C@@]21C [chloromethyl 9α-fluoro-17α-isopropoxycarbonyloxy-16β-methylandrosta-1,4-dien-3,11-dione-17β-carboxylate]
[2]; Table V-b, 1 μg/pellet
  Body wt. gain: 28.9 ± 1.1 g
  Dry granulation Tissue: 59.1 ± 5.8 mg
  Dry granulation Tissue Inhibition: 12.1%
  Thymus wt.: 441 ± 24 mg
[2]; Table V-b, 3 μg/pellet
  Body wt. gain: 25.8 ± 0.9 g
  Dry granulation Tissue: 49.4 ± 3.7 mg
  Dry granulation Tissue Inhibition: 26.5%
  Thymus wt.: 519 ± 31 mg
[2]; Table V-b, 10 μg/pellet
  Body wt. gain: 28.4 ± 0.8 g
  Dry granulation Tissue: 51.1 ± 5.8 mg
  Dry granulation Tissue Inhibition: 24.0%
  Thymus wt.: 547 ± 35 mg
[2]; Table V-b, 30 μg/pellet
  Body wt. gain: 27.4 ± 0.9 g
  Dry granulation Tissue: 40.6 ± 3.6 mg
  Dry granulation Tissue Inhibition: 39.6%
  Thymus wt.: 536 ± 24 mg

## CCCCCOC(=O)O[C@]1(C(=O)OCCl)[C@H](C)C[C@H]2[C@@H]3CCC4=CC(=O)C=C[C@]4(C)[C@@]3(F)[C@@H](O)C[C@@]21C [chloromethyl 9β-fluoro-11β-hydroxy-16α-methyl-17α-pentyloxycarbonyloxyandrosta-1,4-dien-3-one-17β-carboxylate]
[1]; [9]
  Body weight gain: 18.0 ± 1.5 g
  Thymus wt.: 387 ± 23 mg
  Thymus wt. Decrease: 9.2%
[1]; [10]
  Body weight gain: 15.6 ± 1.3 g
  Thymus wt.: 347 ± 15 mg
  Thymus wt. Decrease: 18.5%
[1]; [11]
  Body weight gain: 17.4 ± 1.5 g
  Thymus wt.: 357 ± 22 mg
  Thymus wt. Decrease: 16.2%
[1]; [12]
  Body weight gain: 13.5 ± 1.0 g
  Thymus wt.: 335 ± 17 mg
  Thymus wt. Decrease: 21.4%

## CCOC(=O)O[C@]1(C(=O)OCCl)[C@H](C)C[C@H]2[C@@H]3CCC4=CC(=O)C=C[C@]4(C)[C@@]3(F)C(=O)C[C@@]21C [chloromethyl 17α-ethoxycarbonyloxy-9α-fluoro-16α-methylandrosta-1,4-dien-3,11-dione-17β-carboxylate]
[2]; Table V-b, 1 μg/pellet
  Body wt. gain: 23.7 ± 1.5 g
  Dry granulation Tissue: 55.3 ± 2.6 mg
  Dry granulation Tissue Inhibition: 17.7%
  Thymus wt.: 459 ± 41 mg
[2]; Table V-b, 3 μg/pellet
  Body wt. gain: 25.6 ± 1.2 g
  Dry granulation Tissue: 51.6 ± 5.9 mg
  Dry granulation Tissue Inhibition: 23.2%
  Thymus wt.: 467 ± 21 mg
[2]; Table V-b, 10 μg/pellet
  Body wt. gain: 26.5 ± 2.5 g
  Dry granulation Tissue: 41.5 ± 4.7 mg
  Dry granulation Tissue Inhibition: 38.2%
  Thymus wt.: 544 ± 31 mg
[2]; Table V-b, 30 μg/pellet
  Body wt. gain: 20.3 ± 0.9 g
  Dry granulation Tissue: 39.9 ± 3.6 mg
  Dry granulation Tissue Inhibition: 40.6%
  Thymus wt.: 463 ± 24 mg
